Values quoted from earlier work as cited in patent US20260174683A1, “CHEWABLE COMPOSITION COMPRISING A GUMMY MATRIX AND COMPRISING MELATONIN, SODIUM ALGINATE, AND CALCIUM LACTATE” (S.I.I.T. S.R.L.-SERVIZIO INTERNAZIONALE IMBALLAGGI …, priority 2022, published 2026).

SMILES: CC(O)C(=O)[O-].CC(O)C(=O)[O-].[Ca+2] (centres unmarked) [calcium lactate]
- pH of 5% solution in water: 6-8

SMILES: CC(O)C(=O)[O-].CC(O)C(=O)[O-].[Mg+2] (centres unmarked) [Magnesium lactate, magnesium lactate]
- pH of 5% solution in water: 6.5-8.5
